Test system: 991263-137-R1-J2-PDC complex spheroid viability
Assay: Anticancer human tumor 991263-137-R1-J2-PDC patient-derived colon adenocarcinoma cell line growth inhibition [POLQ]
Conditions: for IC50: curve of first compound; for viability, T/C: stronger effect = lower value
Procedure: Multicellular complex tumor spheroid response to Polymerase (POL) inhibitors (novobiocin, ART-558, RP6685) in combination with a variety of drugs and investigational agents in selected tumor cell lines
The POL inhibitors (novobiocin, ART-558, and RP6685) were evaluated both individually and in combination with standard of care and investigational anticancer small molecules within a complex spheroid model of solid tumors. . Complex spheroids include a stromal component modeled by human endothelial cells (HUVEC) and fibroblasts modeled by human mesenchymal stem cells (MSCs). The concentration ranges selected for each drug and investigational agent were based upon clinically achievable concentrations if the clinical Cmax of the agent was known.
Compounds. The drugs and investigational agents: novobiocin (NSC847541), ART-558 (NSC835418), RP-6685 (NSC848927), peposertib (NSC802822), ceralasertib (NSC780249), elimusertib (NSC800525), camonsertib (NSC841442), AZD-1390 (NSC803789), olaparib (NSC753686), talazoparib (NSC767125), rucaparib (NSC756644), sotorasib (NSC818433), MRTX-1133 (NSC836407), SN-38 (NSC673596), topotecan (NSC609699), epotoside (NSC141540), doxorubicin (NSC123127), gemcitabine (NSC613327), 5-fluorouracil (NSC19893), paclitaxel (NSC125973), vemurafenib (NSC761431), MSA-2 (NSC828583), SN-011 (NSC837082), adavosertib (NSC754352), prexasertib (NSC758257), carboplatin (NSC241240) and oxaliplatin (NSC266046), were obtained from the National Cancer Institute (NCI) Developmental Therapeutics Program Chemical Repository (21). The FDA-approved anticancer drug set is available from the Developmental Therapeutics Program at https://dtp.cancer.gov/organization/dscb/obtaining/. […] The stock solutions were prepared in dimethyl sulfoxide (DMSO, Sigma-Aldrich, St. Louis, MO, cat. D2650), except for the platinum compounds which were prepared in saline (Quality Biological, Gaithersburg, MD, cat. 114-055-101), at 800-fold the tested concentration and stored at -70 degrees C prior to their use. All drugs and investigational agents were tested over a range starting from a high concentration at or near the clinical Cmax and decreasing in half-log increments. If the clinical Cmax for an agent had not been determined, the highest concentration tested was 10 microM, except for SN-38, which was tested at a high concentration of 1 microM.
Cell Culture. All cells were maintained in an incubator at 37 degrees C and 5% CO2 with 95% humidity. The PDC lines were cultured according to standard operating procedures established by the NCI PDMR (https://pdmr.cancer.gov). Table 3 of the manuscript, lists the cell lines along with the number of the three cell types plated to form the mct-spheroids and media for tumor cell growth. After thawing, all PDC lines, except 997537-175-T-J1-PDC and 415267-285-R-J2-PDC, were cultured in Matrigel-coated flasks prepared with a working solution of 1X Ham's F-12 nutrient mix, without supplementation (Thermo Fisher Scientific, cat. 11765054), 100 U/mL penicillin-streptomycin (Thermo Fisher Scientific, cat. 15140122), and 2.5% Matrigel (Corning Inc., Corning, NY, cat. 354248) for the first three passages. The two PDC lines 997537-175-T-J1-PDC and 415267-285-R-J2-PDC were cultured on uncoated flasks. The 857933-349-R-J2-PDC line was cultured in 6C/Colon 1B media containing advanced DMEM/F-12 (Thermo Fisher Scientific, cat. 12634028), 10 mM HEPES (Thermo Fisher Scientific, cat. 15630080), 1X GlutaMAX supplement (Thermo Fisher Scientific, cat. 35050061), 0.1 mg/mL primocin (InvivoGen, San Diego, CA, cat. ant-pm-2), 10% defined fetal bovine serum, heat inactivated (HyClone Laboratories Inc., Logan, UT, cat. SH30070.03HI), 50% L-WRN conditioned media (ATCC, cat. CRL-3276), 1.25 mM N-Acetyl-L-cysteine (Sigma-Aldrich, cat. A9165), 10 mM nicotinamide (Sigma-Aldrich, cat. N0636), 1X B-27 supplement (Thermo Fisher Scientific, cat. 17504044), 1X N-2 supplement (Thermo Fisher Scientific, cat. […]

[1] = second compound 0.0316 µM, first compound 0.00316 µM
[2] = second compound 0.0316 µM, first compound 0.01 µM
[3] = second compound 0.0316 µM, first compound 0.0316 µM
[4] = second compound 0.0316 µM, first compound 0.1 µM
[5] = second compound 0.1 µM, first compound 0.00316 µM
[6] = second compound 0.1 µM, first compound 0.01 µM
[7] = second compound 0.1 µM, first compound 0.0316 µM
[8] = second compound 0.1 µM, first compound 0.1 µM
[9] = second compound 0.316 µM, first compound 0.00316 µM
[10] = second compound 0.316 µM, first compound 0.01 µM
[11] = second compound 0.316 µM, first compound 0.0316 µM
[12] = second compound 0.316 µM, first compound 0.1 µM
[13] = second compound 1 µM, first compound 0.00316 µM
[14] = second compound 1 µM, first compound 0.01 µM
[15] = second compound 1 µM, first compound 0.0316 µM
[16] = second compound 1 µM, first compound 0.1 µM
[17] = second compound 3.16 µM, first compound 0.00316 µM
[18] = second compound 3.16 µM, first compound 0.01 µM
[19] = second compound 3.16 µM, first compound 0.0316 µM
[20] = second compound 3.16 µM, first compound 0.1 µM
[21] = second compound 10 µM, first compound 0.00316 µM
[22] = second compound 10 µM, first compound 0.01 µM
[23] = second compound 10 µM, first compound 0.0316 µM
[24] = second compound 10 µM, first compound 0.1 µM
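Also: spheroids exposed to compounds for 7 days before readout.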
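For viability, T/C in this document: 100% = DMSO vehicle control viability.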

CCc1c2c(nc3ccc(O)cc13)-c1cc3c(c(=O)n1C2)COC(=O)[C@]3(O)CC + COC1C(OC(N)=O)C(O)C(Oc2ccc3c(O)c(NC(=O)c4ccc(O)c(CC=C(C)C)c4)c(=O)oc3c2C)OC1(C)C gave an IC50 (second compound 0.0316 µM) of 69.1 nM, an IC50 (second compound 0.1 µM) of 55.1 nM and an IC50 (second compound 0.316 µM) of 59.2 nM. For the same molecule, the IC50 (second compound 1 µM) was 67.5 nM, the IC50 (second compound 3.16 µM) was 99.9 nM and the IC50 (second compound 10 µM) was 59.2 nM. The viability, T/C [1] was 102%, the viability, T/C [2] was 81% and the viability, T/C [3] was 54.5%. For the same molecule, the viability, T/C [4] was 45.3%, the viability, T/C (second compound 0.0316 µM, first compound 0.316 µM) was 41.4% and the viability, T/C (second compound 0.0316 µM, first compound 1 µM) was 25.9%. For the same molecule, the viability, T/C [5] was 106%, the viability, T/C [6] was 88.4% and the viability, T/C [7] was 52.9%. The viability, T/C [8] was 44%, the viability, T/C (second compound 0.1 µM, first compound 0.316 µM) was 29.1% and the viability, T/C (second compound 0.1 µM, first compound 1 µM) was 20.2%. It also gave a viability, T/C [9] of 83.3%, a viability, T/C [10] of 74.9% and a viability, T/C [11] of 47.8%. It also gave a viability, T/C [12] of 48.9%, a viability, T/C (second compound 0.316 µM, first compound 0.316 µM) of 34.9% and a viability, T/C (second compound 0.316 µM, first compound 1 µM) of 20.9%. It also gave a viability, T/C [13] of 92.2%, a viability, T/C [14] of 81% and a viability, T/C [15] of 62.2%. The viability, T/C [16] was 41.9%, the viability, T/C (second compound 1 µM, first compound 0.316 µM) was 33.6% and the viability, T/C (second compound 1 µM, first compound 1 µM) was 22.6%. For the same molecule, the viability, T/C [17] was 84.1%, the viability, T/C [18] was 66.6% and the viability, T/C [19] was 61.1%. The viability, T/C [20] was 54.3%, the viability, T/C (second compound 3.16 µM, first compound 0.316 µM) was 37.1% and the viability, T/C (second compound 3.16 µM, first compound 1 µM) was 19.2%. It also gave a viability, T/C [21] of 104%, a viability, T/C [22] of 82.3% and a viability, T/C [23] of 53.3%. The viability, T/C [24] was 46.1%, the viability, T/C (second compound 10 µM, first compound 0.316 µM) was 30.6% and the viability, T/C (second compound 10 µM, first compound 1 µM) was 19.9%.

For CC[C@@]1(O)C(=O)OCc2c1cc1n(c2=O)Cc2cc3c(CN(C)C)c(O)ccc3nc2-1 + Cc1cccc(N(C)C(=O)C2C(O)CCN2c2nc(C)cc(C(F)(F)F)c2C#N)c1, the IC50 (second compound 0.0316 µM) was over 100 nM, the IC50 (second compound 0.1 µM) was over 100 nM and the IC50 (second compound 0.316 µM) was over 100 nM. The IC50 (second compound 1 µM) was over 100 nM, the IC50 (second compound 3.16 µM) was over 100 nM and the IC50 (second compound 10 µM) was over 100 nM. The viability, T/C (second compound 0.0316 µM, first compound 0.000316 µM) was 111%, the viability, T/C (second compound 0.0316 µM, first compound 0.001 µM) was 115% and the viability, T/C [1] was 111%. For the same molecule, the viability, T/C [2] was 106%, the viability, T/C [3] was 114% and the viability, T/C [4] was 97.3%. The viability, T/C (second compound 0.1 µM, first compound 0.000316 µM) was 112%, the viability, T/C (second compound 0.1 µM, first compound 0.001 µM) was 111% and the viability, T/C [5] was 94%. The viability, T/C [6] was 118%, the viability, T/C [7] was 105% and the viability, T/C [8] was 92.8%. The viability, T/C (second compound 0.316 µM, first compound 0.000316 µM) was 117%, the viability, T/C (second compound 0.316 µM, first compound 0.001 µM) was 130% and the viability, T/C [9] was 101%. The viability, T/C [10] was 95.9%, the viability, T/C [11] was 101% and the viability, T/C [12] was 91.4%. It also gave a viability, T/C (second compound 1 µM, first compound 0.000316 µM) of 111%, a viability, T/C (second compound 1 µM, first compound 0.001 µM) of 114% and a viability, T/C [13] of 109%. It also gave a viability, T/C [14] of 118%, a viability, T/C [15] of 110% and a viability, T/C [16] of 81.5%. The viability, T/C (second compound 3.16 µM, first compound 0.000316 µM) was 101%, the viability, T/C (second compound 3.16 µM, first compound 0.001 µM) was 98.3% and the viability, T/C [17] was 98.2%. The viability, T/C [18] was 86.6%, the viability, T/C [19] was 96.2% and the viability, T/C [20] was 91.3%. The viability, T/C (second compound 10 µM, first compound 0.000316 µM) was 117%, the viability, T/C (second compound 10 µM, first compound 0.001 µM) was 120% and the viability, T/C [21] was 108%. The viability, T/C [22] was 97.5%, the viability, T/C [23] was 90.8% and the viability, T/C [24] was 77%.

From PubChem BioAssay AID1963828 (Molecular Pharmacology Branch, DTP, NCI, 2024)
